In patent US9204640B2, “2-acyloxy-pyrrolin-4-ones” (BAYER INTELLECTUAL PROPERTY GMBH, priority 2011, dated 2015):

Legend:
Type in all cases: in vivo
[1] = test system: Alopecurus myosuroides; assay: Herbicidal post-emergence action, ALOMY; conditions: 80 g/ha
Method: (§1) 2. Herbicidal Post-Emergence Action
(§2) • Seeds of monocotyledonous and dicotyledonous weed and crop plants are placed in sandy loam in wood-fiber pots, covered with soil and cultivated in a greenhouse under good growth conditions. 2 to 3 weeks after sowing, the test plants are treated at the one-leaf stage. The test compounds, formulated as wettable powders (WP), are then, with a water application rate of 600 l/ha (converted), with 0.2% of wetting agent added, sprayed at various dosages onto the green parts of the plants. After the test plants have been kept in the greenhouse under optimum growth conditions for about 3 weeks, the activity of the preparations is rated visually in comparison to untreated controls (herbicidal activity in percent: 100% activity=the plants have died, 0% activity=like control plants). • In addition to the compounds mentioned above, the following compounds show an activity of 90-100% against Alopecurus myosuroides, Avena fatua, Digitaria sanguinalis, Echinocloa crus-galli, Lolium multiflorum, Setaria viridis and Sorghum halapense when applied by the post-emergence method at 320 g/ha: I-a-2, I-a-4, I-a-5, I-a-7, I-a-9, I-a-10, I-a-11, I-a-12, I-a-13, I-a-15. • In addition to the compounds mentioned above, the following compounds show an activity of 90-100% against Alopecurus myosuroides, Avena fatua, Echinocloa crus-galli, Lolium multiflorum and Setaria viridis when applied by the post-emergence method at 80 g/ha: I-a-1, I-b-2.
(§3) • Seeds of monocotyledonous and dicotyledonous weed plants and crop plants are placed in wood-fiber pots in sandy loam and covered with soil. The test compounds, formulated in the form of wettable powders (WP) or emulsion concentrates (EC), are then, as an aqueous suspension with a water application rate of 600-800 l/ha (converted), with 0.1-0.2% of wetting agent added, applied at various dosages to the surface of the covering soil. • After the treatment, the pots are placed in a greenhouse and kept under good growth conditions for the test plants. […] Herbicidal Post-Emergence Action (Post) • Seeds of monocotyledonous and dicotyledonous weed and crop plants are placed in sandy loam in wood-fiber pots, covered with soil and cultivated in a greenhouse under good growth conditions. 2-3 weeks (stages 10-13 according to the BBCH scale) after sowing, the test plants are treated at a height of 5-10 cm. The test compounds, formulated as wettable powders (WP) or emulsion concentrates (EC), are then, with a water application rate of 600-800 l/ha (converted), with 0.1-0.2% of wetting agent added, sprayed at various dosages onto the green parts of the plants.
(§4) AVEFA: Avena fatua LOLMU: Lolium multiflorum SETVI: Setaria viridis CHEAL: Chenopodium album VIOTR: Viola tricolor VERPE: Veronica persica ORYSA: Oryza sativa TRZAS: Triticum aestivum ZEAMX: Zea mays ALOMY: Alopecurus myosuroides DIGSA: Digitaria sanguinalis ECHCG: Echinocloa crus-galli SORHA: Sorghum halepense AVESA: Avena sativa AMARE: Amaranthus retroflexus SINAL: Sinapis alba STEME: Stellaria media

[2] = test system: Avena fatua; assay: Herbicidal post-emergence action, AVEFA; conditions: 80 g/ha
Method: as §1, §2, §3, §4

[3] = test system: Digitaria sanguinalis; assay: Herbicidal post-emergence action, DIGSA; conditions: 80 g/ha
Method: as §1, §2, §3, §4

[4] = test system: Echinocloa crus-galli; assay: Herbicidal post-emergence action, ECHCG; conditions: 80 g/ha
Method: as §1, §2, §3, §4

[5] = test system: Lolium multiflorum; assay: Herbicidal post-emergence action, LOLMU; conditions: 80 g/ha
Method: as §1, §2, §3, §4

[6] = test system: Setaria viridis; assay: Herbicidal post-emergence action, SETVI; conditions: 80 g/ha
Method: as §1, §2, §3, §4

[7] = test system: Sorghum halepense; assay: Herbicidal post-emergence action, SORHA
Method: as §1, §2, §3, §4

[8] = test system: Veronica persica; assay: Herbicidal post-emergence action, VERPE
Excerpt: as §3, with “the plants. […]” for “the plants.”

[9] = test system: Oryza sativa; assay: Herbicidal post-emergence action, ORYSA; conditions: 80 g/ha
Excerpt: as §3, §4

[10] = test system: Triticum aestivum; assay: Herbicidal post-emergence action, TRZAS; conditions: 80 g/ha
Excerpt: as §3, §4

[11] = test system: Zea mays; assay: Herbicidal post-emergence action, ZEAMX; conditions: 80 g/ha
Excerpt: as §3, §4

[12] = test system: Avena fatua; assay: Herbicidal pre-emergence action, AVEFA
Excerpt: (§5) 1. Herbicidal Pre-Emergence Action
(§6) • Seeds of monocotyledonous and dicotyledonous weed plants and crop plants are placed in wood-fiber pots in sandy loam and covered with soil. The test compounds, formulated in the form of wettable powders (WP), are then, as an aqueous suspension with a water application rate of 600 l/ha (converted), with 0.2% of wetting agent added, applied at various dosages to the surface of the covering soil. • After the treatment, the pots are placed in a greenhouse and kept under good growth conditions for the test plants. The visual assessment of the damage to the test plants is carried out after a trial period of about 3 weeks by comparison with untreated controls (herbicidal activity in percent: 100% activity=the plants have died, 0% activity=like control plants). • In addition to the compounds mentioned above, the following compounds show an activity of 90-100% against Alopecurus myosuroides, Digitaria sanguinalis, Echinocloa crus-galli, Lolium multiflorum, Setaria viridis and Sorghum halapense when applied by the pre-emergence method at 320 g/ha of a.i.: I-a-2, I-a-10, I-a-11, I-a-12.
(§7) 1. Herbicidal Pre-Emergence Action (Pre)
(§8) • Seeds of monocotyledonous and dicotyledonous weed plants and crop plants are placed in wood-fiber pots in sandy loam and covered with soil. […]

[13] = test system: Lolium multiflorum; assay: Herbicidal pre-emergence action, LOLMU
Excerpt: as §5, §6, §7, §8

[14] = test system: Setaria viridis; assay: Herbicidal pre-emergence action, SETVI; conditions: 320 g/ha
Excerpt: as §5, §6, §7, §3, §4

[15] = test system: Chenopodium album; assay: Herbicidal pre-emergence action, CHEAL
Excerpt: as §7
as §3, with “the plants. […]” for “the plants.”

[16] = test system: Viola tricolor; assay: Herbicidal pre-emergence action, VIOTR
Excerpt: as §7
as §3, with “the plants. […]” for “the plants.”

[17] = test system: Veronica persica; assay: Herbicidal pre-emergence action, VERPE
Excerpt: as §7
as §3, with “the plants. […]” for “the plants.”

CCc1cccc(Cl)c1C1=C(OC(=O)C(C)(C)C)C2(CCC(C)CC2)NC1=O (stereo not shown) [I-b-12 known from WO 04/065366]
inhibition at 80 g/ha ([1]; Alopecurus myosuroides, post-emergence): 0% | inhibition at 80 g/ha ([2]; Avena fatua, post-emergence): 0% | inhibition at 80 g/ha ([3]; Digitaria sanguinalis, post-emergence): 30% | inhibition at 80 g/ha ([4]; Echinochloa crus-galli, post-emergence): 40% | inhibition at 80 g/ha ([5]; Lolium multiflorum, post-emergence): 0% | inhibition at 80 g/ha ([6]; Setaria viridis, post-emergence): 30% | inhibition at 80 g/ha ([7]; Sorghum halepense, post-emergence): 0% | inhibition at 80 g/ha ([8]; Veronica persica, post-emergence): 0% | inhibition at 80 g/ha ([9]; Oryza sativa, post-emergence): 0% | inhibition at 80 g/ha ([10]; Triticum aestivum, post-emergence): 0% | inhibition at 80 g/ha ([11]; Zea mays, post-emergence): 0%

CCc1cc(Cl)cc(Cl)c1C1=C(OC(=O)C(C)(C)C)C2(CCC(C)CC2)NC1=O (stereo not shown) [I-b-12 known from WO 04/065366]
inhibition at 320 g/ha ([12]; Avena fatua, pre-emergence): 0% | inhibition at 320 g/ha ([13]; Lolium multiflorum, pre-emergence): 40% | inhibition at 320 g/ha ([14]; Setaria viridis, pre-emergence): 40% | inhibition at 320 g/ha ([15]; Chenopodium album, pre-emergence): 0% | inhibition at 320 g/ha ([16]; Viola tricolor, pre-emergence): 0% | inhibition at 320 g/ha ([17]; Veronica persica, pre-emergence): 0%

CCc1cc(Cl)cc(Cl)c1C1=C(OC(=O)C(C)(C)C)NC2(CCC(C)CC2)C1=O (stereo not shown) [I-a-4]
% Activity AVEFA ([12]; 320 g/ha): 50% | % Activity LOLMU ([13]; 320 g/ha): 100% | % Activity SETVI [14]: 90% | % Activity CHEAL ([15]; 320 g/ha): 50% | % Activity VIOTR ([16]; 320 g/ha): 70% | % Activity VERPE ([17]; 320 g/ha): 40% | % Activity ALOMY [1]: 100% | % Activity AVEFA [2]: 100% | % Activity DIGSA [3]: 100% | % Activity ECHCG [4]: 100% | % Activity LOLMU [5]: 100% | % Activity SETVI [6]: 100% | % Activity SORHA ([7]; 80 g/ha): 100% | % Activity VERPE ([8]; 80 g/ha): 60% | % Activity ORYSA [9]: 100% | % Activity TRZAS [10]: 100% | % Activity ZEAMX [11]: 100%
